In data set [1] the test system is H5V mouse endothelial cells. The experiment in a line: Phototoxicity (cytophototoxicity) on endothelial cells, Neutral Red viability. It is filed as cell-based. The note with it: endothelial cell cultures, FIG. 3C. The procedure: (i) Cell culture. H5V mouse endothelial cells were cultured as monolayers in Dulbecco's modified Eagle's medium (DMEM)/F12 containing 25 mM HEPES, pH 7.4, 10% fetal calf serum (FCS), glutamine (2 mM), penicillin (0.06 mg/ml), and streptomycin (0.1 mg/ml) (hereinafter referred to as the “culture medium”). The cells were grown at 37° C. in an 8% CO2-humidified atmosphere.
(a) Cells. To determine the photodynamic efficacy, cells were cultured in 96-well plates (40×10^3/well) and incubated in the dark in culture medium containing increasing concentrations of sensitizers 5, 7, 9 and 11, for a period of 1 min to 8 h. Unbound sensitizer was removed by washing the cells once with fresh culture medium. The plates were illuminated at room temperature, from their bottom side, for 10 min (650<λ<800 nm, 12 J/cm^2). The light source was a 100 W Halogen lamp (Osram, Germany) equipped with a <650 nm cutoff and a 4-cm water filter. The cultures were placed in the culture incubator and cell survival was determined 24 h after illumination, by Neutral Red viability assay. Cell survival was calculated as the percent of the dye accumulated in the untreated controls. Triplicate determinations were conducted and representative experiments are shown. […]
The phototoxicity of compounds 5, 7, 9, and 11 on H5V mouse endothelial cells was determined as described in section (iv) (a) above. […]

Data set [2] in a line: Pharmacokinetics in rat blood after i.v. injection (fluorescence). The class given is in vivo, Wistar rats. As to the method: (ix) Pharmacokinetics. Anesthetized Wistar rats (n=3 per each time-point) were i.v. injected with compound 5 of the invention (0.6 mg/kg). […] Control blood samples were collected from three untreated rats and treated accordingly. The test tubes containing the blood samples were weighed again in order to calculate the exact sample mass. The blood samples were then frozen in liquid nitrogen and lyophilized. The lyophilized samples were extracted with methanol (1 ml each), vortexed and centrifuged. The supernatant was collected and analyzed by fluorescence measurements (Spectrofluorimeter SLM-8000, Aminco USA). The fluorescence emission spectra were recorded in a range of 650-850 nm, with excitation at 520 nm. Fluorescence of methanol and untreated blood extracts were used as blanks. A calibration curve with known concentrations of the sensitizer was prepared.

For the next data set, the system named is St. albus. Description: Phototoxicity on Gram-positive bacteria, colony counting. The class given is cell-based. The procedure:
(ii) Bacterial cultures. Bacteria of strains St. albus and E. coli XL-1 were cultured in liquid LB medium (E. coli in LB containing 12.5 μg tetracyclin/ml) to a final density of OD600 nm=0.5-0.9 (1 OD=8×10^8 bacteria/ml). The bacteria were spun down (4000×g, 5 min.) and resuspended in PBS.
(b) Bacterial. To determine the photodynamic efficacy, bacteria were diluted to aliquots of 300 μl containing about 10^7 bacteria, and incubated with increasing concentrations of sensitizer in plastic test tubes in the dark for 1 h at room temperature, and then illuminated at 70 mW/cm^2 for 15 min. Samples of the treated bacteria cultures were subsequently plated at different dilutions (50-200 bacteria/plate) on LB agar and cultured for 24 h at 37° C. for determination of bacterial survival by colony counting. Triplicate determinations were conducted and representative experiments are shown.
The phototoxicity of positively-charged compound 5 was tested on Gram-positive St. albus and Gram-negative E. coli bacteria in comparison to the negatively-charged Pd 3^1-oxo-15-methoxycarbonylmethyl-Rhodobacteriochlorin 13^1-(2-sulfoethyl)amide dipotassium salt (described in PCT/IL03/00973). Bacteria were incubated with increasing concentrations of the sensitizers for 1 h and illuminated or kept in the dark. […] Gram-positive bacteria St. albus, was 100 times more sensitive to compound 5 than Gram-negative E. coli. No phototoxicity was observed when bacteria were incubated and treated with the same sensitizers' concentration range without illumination (dark controls).

In the case of “3^1-Oxo-15-methoxycarbonylmethyl-Rhodo-bacteriochlorin 13^1,17^3-di(2-N^3-trimethylammoniumethyl)amide dicitrate salt [Compound 5]”, the “incubation time at which very high PDT efficiency is reached” value in data set [1] is given as “less than 5 minutes”. Moreover, the clearance kinetics result in data set [2] (24 h after i.v. administration) was “bicompartmental distribution”. The sensitizer cleared entry in data set [2] (within 30 min after i.v. injection (0.6 mg/kg)) was “about 60%”. Besides, the “sensitivity of St. albus relative to E. coli” value in the data set on St. albus was 100 times. The phototoxic killing concentration at St. albus (1 h incubation, illuminated 15 min at 70 mW/cm^2, read-out: Kd (phototoxicity)) worked out at 20 nM.
